What was measured:
[1] = biological target: T1, Cytochrome P450 11B2, mitochondrial (Homo sapiens, UniProt P19099); assay: Inhibition of human CYP11B2 expressed in hamster V79 MZh cells at 500 nM; type: cell-based; details: V79MZh
T1 sequence (P19099 whole entry): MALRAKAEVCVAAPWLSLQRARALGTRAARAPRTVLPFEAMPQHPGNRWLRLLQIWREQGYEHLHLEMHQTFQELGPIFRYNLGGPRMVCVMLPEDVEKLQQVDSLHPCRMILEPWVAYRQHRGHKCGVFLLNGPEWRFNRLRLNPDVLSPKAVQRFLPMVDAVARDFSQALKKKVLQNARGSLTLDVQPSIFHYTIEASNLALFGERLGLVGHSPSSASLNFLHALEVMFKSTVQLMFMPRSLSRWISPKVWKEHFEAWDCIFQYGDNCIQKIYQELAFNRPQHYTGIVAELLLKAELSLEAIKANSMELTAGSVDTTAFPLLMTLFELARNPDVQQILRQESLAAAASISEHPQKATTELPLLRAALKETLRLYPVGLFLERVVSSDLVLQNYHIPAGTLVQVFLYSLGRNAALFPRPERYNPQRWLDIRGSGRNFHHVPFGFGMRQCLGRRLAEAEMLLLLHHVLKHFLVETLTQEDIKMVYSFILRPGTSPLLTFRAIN

Cytochrome P450 2B6 = biological target: T2, Cytochrome P450 2B6 (Homo sapiens, UniProt P20813); assay: Inhibition of human recombinant CYP2B6 expressed in baculovirus-infected insect microsomes; type: ADME, Microsome
T2 sequence (P20813 whole entry): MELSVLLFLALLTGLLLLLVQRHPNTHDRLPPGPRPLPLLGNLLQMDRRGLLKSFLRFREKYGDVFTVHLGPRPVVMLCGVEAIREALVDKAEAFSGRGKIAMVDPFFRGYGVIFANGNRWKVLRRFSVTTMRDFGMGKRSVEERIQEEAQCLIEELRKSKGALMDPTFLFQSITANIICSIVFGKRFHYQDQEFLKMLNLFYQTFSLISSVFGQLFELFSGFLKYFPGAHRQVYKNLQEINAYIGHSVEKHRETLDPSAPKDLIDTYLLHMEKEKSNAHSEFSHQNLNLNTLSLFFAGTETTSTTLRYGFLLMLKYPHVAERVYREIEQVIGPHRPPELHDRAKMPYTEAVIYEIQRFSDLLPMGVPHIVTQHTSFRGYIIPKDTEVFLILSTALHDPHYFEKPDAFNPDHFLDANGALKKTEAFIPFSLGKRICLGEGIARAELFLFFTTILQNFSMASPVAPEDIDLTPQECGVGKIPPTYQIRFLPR

[2] = Terminal half life in Wistar rat at 25 mg/kg, po; type: ADME, organism-based; parameters: dose 25 mg/kg, route oral; details: in vivo, read-out: beta t1/2 (converted)
[3] = Tmax in Wistar rat at 25 mg/kg, po; type: ADME, organism-based; parameters: dose 25 mg/kg, route oral; details: in vivo
[4] = Cmax in Wistar rat at 25 mg/kg, po; type: ADME, organism-based; parameters: dose 25 mg/kg, route oral; details: in vivo
[5] = AUC (0 to infinity) in Wistar rat at 25 mg/kg, po; type: ADME, organism-based; parameters: time infinity, dose 25 mg/kg, route oral; details: plasma
Rattus norvegicus [6] = assay: Plasma concentration in Wistar rat at 25 mg/kg, po after 0.5 to 8 hrs; type: ADME, organism-based; parameters: dose 25 mg/kg, route oral; details: in vivo
Cytochrome P450 1A2 = biological target: T3, Cytochrome P450 1A2 (Homo sapiens, UniProt P05177)
T3 sequence (P05177 whole entry): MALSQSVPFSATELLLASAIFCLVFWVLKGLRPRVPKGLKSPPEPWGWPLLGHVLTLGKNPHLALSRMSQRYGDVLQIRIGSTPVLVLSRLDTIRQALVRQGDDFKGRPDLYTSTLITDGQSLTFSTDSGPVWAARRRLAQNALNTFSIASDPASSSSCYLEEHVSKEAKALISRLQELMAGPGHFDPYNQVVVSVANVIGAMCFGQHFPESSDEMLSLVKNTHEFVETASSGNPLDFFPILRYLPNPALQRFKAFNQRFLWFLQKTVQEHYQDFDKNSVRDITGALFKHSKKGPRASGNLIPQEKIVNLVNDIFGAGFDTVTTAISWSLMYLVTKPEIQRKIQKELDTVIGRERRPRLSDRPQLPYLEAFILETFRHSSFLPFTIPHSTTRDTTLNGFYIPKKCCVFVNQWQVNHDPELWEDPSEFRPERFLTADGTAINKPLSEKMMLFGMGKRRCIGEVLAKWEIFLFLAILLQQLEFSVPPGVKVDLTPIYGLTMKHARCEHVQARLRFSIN
Description: Inhibition of human recombinant CYP1A2 expressed in baculovirus-infected insect microsomes

Rattus norvegicus [7] = assay: Reduction of ACTH-induced aldosterone level in Wistar rat plasma at 20 mg/kg, iv administered 16 hrs after ACTH challenge after 0.5 to 3 hrs; parameters: scale not given: the % may be the effect or the level left
[8] = Protein binding in rat plasma at 3 uM after 1 hr; type: ADME, cell-free; details: read-out: PPB (converted)
[9] = Protein binding in human plasma at 3 uM after 1 hr; type: ADME, cell-free; details: read-out: PPB (converted)
[10] = Terminal half life in Wistar rat at 5 mg/kg, po by cassette dosing; type: ADME, organism-based; parameters: dose 5 mg/kg, route oral; details: in vivo, read-out: beta t1/2 (converted)
[11] = Tmax in Wistar rat at 5 mg/kg, po by cassette dosing; type: ADME, organism-based; parameters: dose 5 mg/kg, route oral; details: in vivo
[12] = Cmax in Wistar rat at 5 mg/kg, po by cassette dosing; type: ADME, organism-based; parameters: dose 5 mg/kg, route oral; details: in vivo
[13] = AUC (0 to infinity) in Wistar rat at 5 mg/kg, po by cassette dosing; type: ADME, organism-based; parameters: time infinity, dose 5 mg/kg, route oral; details: plasma
U-937 = assay: Cytotoxicity against human U937 cells assessed as reduction of survival fraction at >100 uM by fluorimetric alamar blue assay; type: cell-based

O=C1CCc2cc(-c3cncc4ccccc34)ccc2N1
inhibition at 0.5 µM [1]: 94% | IC50 (Cytochrome P450 2B6): < 100 µM | half-life [2]: 2.9 h | Tmax [3]: 2 h | Cmax [4]: 134 ng/mL | AUC(0-inf) [5]: 1660 ng·h/mL | Cp (Rattus norvegicus [6]): 90 ng/mL | IC50 (Cytochrome P450 1A2): > 150 µM | Activity (Rattus norvegicus [7]): 36%

O=C1CCc2cc(-c3cccnc3)ccc2C1
inhibition at 0.5 µM [1]: 97% | IC50 (Cytochrome P450 2B6): < 50 µM | fraction unbound at 1 h, 3 µM [8]: 0.75 | fraction unbound at 1 h, 3 µM [9]: 0.76 | half-life [10]: 3.5 h | Tmax [11]: 4 h | Cmax [12]: 104 ng/mL | AUC(0-inf) [13]: 727 ng·h/mL | Activity (U-937): Toxic | IC50 (Cytochrome P450 1A2): 1.55 µM

COc1cncc(-c2ccc3c(c2)CCC(=O)C3)c1
inhibition at 0.5 µM [1]: 94% | IC50 (Cytochrome P450 2B6): < 50 µM | half-life [10]: 3.9 h | Tmax [11]: 4 h | Cmax [12]: 35 ng/mL | AUC(0-inf) [13]: 212 ng·h/mL | IC50 (Cytochrome P450 1A2): 1.56 µM
